Assay results taken from PubChem BioAssay (NCI).
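Assay format: 96-well plates, 48-hour exposure. At the GI50, growth is halved. TGI: concentration producing complete growth inhibition.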

Key:
Assay in all cases: NCI tumour cell line growth inhibition, 48 h
[1] = system: PC-3 prostate
[2] = system: SF-295 CNS
[3] = system: A549 NSCLC
[4] = system: SNB-19 CNS
[5] = system: DU-145 prostate
[6] = system: 786-0 renal
[7] = system: SK-MEL-2 melanoma
[8] = system: HOP-62 NSCLC
[9] = system: BT-549 breast
[10] = system: HT29 colon
[11] = system: UACC-62 melanoma
[12] = system: CAKI-1 renal
[13] = system: SN12C renal
[14] = system: A498 renal
[15] = system: COLO 205 colon
[16] = system: NCI-H522 lung
[17] = system: KM12 colon
[18] = system: HS 578T breast
[19] = system: RPMI-8226 leukemia
[20] = system: HOP-92 NSCLC
[21] = system: T-47D breast
[22] = system: ACHN renal
[23] = system: SNB-75 CNS
[24] = system: LOX IMVI melanoma
[25] = system: MALME-3M melanoma
[26] = system: SK-MEL-5 melanoma
[27] = system: HCT-15 colon
[28] = system: CCRF-CEM leukemia
[29] = system: UO-31 renal
[30] = system: HCT-116 colon
[31] = system: OVCAR-3 ovarian
[32] = system: SW-620 colon
[33] = system: MCF7 breast
[34] = system: EKVX NSCLC
[35] = system: SF-268 CNS
[36] = system: MDA-MB-468 breast
[37] = system: RXF 393 renal
[38] = system: HCC-2998 colon
[39] = system: HL-60(TB) leukemia
[40] = system: NCI-H226 lung
[41] = system: OVCAR-5 ovarian
[42] = system: SK-MEL-28 melanoma
[43] = system: SK-OV-3 ovarian
[44] = system: NCI-H460 lung
[45] = system: K-562 leukemia
[46] = system: NCI-H23 lung
[47] = system: OVCAR-4 ovarian
[48] = system: MOLT-4 leukemia
[49] = system: U251 CNS
[50] = system: OVCAR-8 ovarian
[51] = system: SF-539 CNS
[52] = system: MDA-MB-435
[53] = system: NCI/ADR-RES ovarian
[54] = system: M14 melanoma
[55] = system: UACC-257 melanoma
[56] = system: TK-10 renal
[57] = system: MDA-MB-231 breast
[58] = system: IGROV1 ovarian

Work on `COc1ccc2c(c1)c(/C=N/Nc1ccc3ccccc3n1)cn2C` yielded a GI50 [1] of 8.25 µM, a TGI [1] of 23.9 µM and a GI50 [2] of 11.2 µM. For the same molecule, the TGI [2] was 24.4 µM, the GI50 [3] was 9.48 µM and the TGI [3] was 28.7 µM. It also gave a GI50 [4] of 15.8 µM, a TGI [4] of 32.4 µM and a GI50 [5] of 12.3 µM. The TGI [5] was 25.5 µM, the GI50 [6] was 15.3 µM and the TGI [6] was 31.6 µM. It also gave a GI50 [7] of 16.8 µM, a TGI [7] of 35.1 µM and a GI50 [8] of 11.3 µM. For the same molecule, the TGI [8] was 44.9 µM, the GI50 [9] was 15.2 µM and the TGI [9] was 30.2 µM. It also gave a GI50 [10] of 5.46 µM, a TGI [10] of 23.1 µM and a GI50 [11] of 12.7 µM. The TGI [11] was 26.8 µM, the GI50 [12] was 5.95 µM and the TGI [12] was 21.3 µM. The GI50 [13] was 7.61 µM, the TGI [13] was 22.5 µM and the GI50 [14] was 17.4 µM. The TGI [14] was 33 µM, the GI50 [15] was 15.9 µM and the TGI [15] was 39.2 µM. It also gave a GI50 [16] of 14 µM, a TGI [16] of 39 µM and a GI50 [17] of 5.47 µM. For the same molecule, the TGI [17] was 21.9 µM, the GI50 [18] was 13 µM and the TGI [18] was 33.3 µM. It also gave a GI50 [19] of 7.83 µM, a TGI [19] of 42.9 µM and a GI50 [20] of 1.58 µM. It also gave a TGI [20] of 11.5 µM, a GI50 [21] of 8.62 µM and a TGI [21] of 36.5 µM. The GI50 [22] was 7.38 µM, the TGI [22] was 21.4 µM and the GI50 [23] was 4.97 µM. For the same molecule, the TGI [23] was 22.2 µM, the GI50 [24] was 1.97 µM and the TGI [24] was 5.27 µM. For the same molecule, the GI50 [25] was 18.6 µM, the TGI [25] was 38.7 µM and the GI50 [26] was 10.4 µM. It also gave a TGI [26] of 22.7 µM, a GI50 [27] of 3.4 µM and a TGI [27] of 13.3 µM. The GI50 [28] was 5.52 µM, the TGI [28] was 86.7 µM and the GI50 [29] was 1.68 µM. For the same molecule, the TGI [29] was 13.4 µM, the GI50 [30] was 8.18 µM and the TGI [30] was 26.5 µM. For the same molecule, the GI50 [31] was 13.9 µM, the TGI [31] was 31.4 µM and the GI50 [32] was 7.46 µM. The TGI [32] was 35.2 µM, the GI50 [33] was 4.45 µM and the TGI [33] was 24.2 µM. For the same molecule, the GI50 [34] was 2.3 µM, the TGI [34] was 19.4 µM and the GI50 [35] was 14.3 µM. For the same molecule, the TGI [35] was 31.3 µM, the GI50 [36] was 3.91 µM and the TGI [36] was 16.1 µM. The GI50 [37] was 5.03 µM, the TGI [37] was 19.1 µM and the GI50 [38] was 3.69 µM. For the same molecule, the TGI [38] was 15.4 µM, the GI50 [39] was 10.4 µM and the TGI [39] was 41.7 µM. For the same molecule, the GI50 [40] was 7.95 µM, the TGI [40] was 29.6 µM and the GI50 [41] was 11.9 µM. The TGI [41] was 24.7 µM, the GI50 [42] was 14.9 µM and the TGI [42] was 30.3 µM. The GI50 [43] was 16.3 µM, the TGI [43] was 36.5 µM and the GI50 [44] was 7.8 µM. For the same molecule, the TGI [44] was 30 µM, the GI50 [45] was 3.36 µM and the TGI [45] was over 100 µM. For the same molecule, the GI50 [46] was 11.8 µM, the TGI [46] was 28.4 µM and the GI50 [47] was 13.2 µM. For the same molecule, the TGI [47] was 33.3 µM, the GI50 [48] was 6.5 µM and the TGI [48] was 39.1 µM. For the same molecule, the GI50 [49] was 13.3 µM, the TGI [49] was 32.9 µM and the GI50 [50] was 14.7 µM. The TGI [50] was 35.7 µM, the GI50 [51] was 10.3 µM and the TGI [51] was 22.2 µM. It also gave a GI50 [52] of 8.41 µM, a TGI [52] of 23.1 µM and a GI50 [53] of 10.4 µM. It also gave a TGI [53] of 30.3 µM, a GI50 [54] of 13.4 µM and a TGI [54] of 30.1 µM. The GI50 [55] was 15.4 µM, the TGI [55] was 30.2 µM and the GI50 [56] was 22.5 µM. It also gave a TGI [56] of 39 µM, a GI50 [57] of 4.36 µM and a TGI [57] of 19 µM. The GI50 [58] was 10.8 µM and the TGI [58] was 26.5 µM.
